# “And” between values parts separate entries of the source, which are not always exact repeats. Equal entries are not always repeated. “Also recorded” adds a separate entry of the source.
# Key:
# [1] = plasma exposure in the KARPAS-422 xenograft study; assay type: in vivo, SCID mice; settings: 250 mg/kg BID, D-tartrate salt, day 7
# [2] = test system: WSU-DLCL2 cells; test: predicted efficacious plasma exposure; settings: human; plasma protein binding corrected LCC
# [3] = liver microsome clearance, human; assay type: in vitro ADME; settings: human liver microsomes
# [4] = liver microsome clearance, rat; assay type: in vitro ADME; settings: rat liver microsomes
# [5] = plasma protein binding, equilibrium dialysis, rat; assay type: in vitro ADME
# [6] = test system: H3K27me3 in WSU-DLCL2 cells; test: ELISA of cellular H3K27me3 methyl mark reduction; settings: read-out: ELISA H3K27me3 IC50; WSU-DLCL2 (Y641F mutant-bearing) cells; n = 20
# [7] = test system: H3K27 methyl mark in tumor tissue; test: PD in KARPAS-422 tumor samples, H3K27 methyl mark; assay type: in vivo, SCID mice; settings: day 7, 250 and 500 mg/kg, over the 12 h time-course
# [8] = test system: WSU-DLCL2 cells; test: 11-day proliferation assay, LCC; settings: n = 4
# [9] = test system: H3K27 methylation in bone marrow; test: 7-day BID PD, H3K27 methylation in bone marrow; assay type: in vivo, mouse; settings: 500 mg/kg BID, end of day 7
# [10] = rat oral PK of D-tartrate salt; assay type: in vivo; settings: for time above LCC: p.o., D-tartrate salt; for AUC(0-inf) / Cmax / Tmax: plasma, po
# [11] = single dose oral PK in SCID mice; assay type: in vivo
# [12] = 7-day BID PK study, plasma exposure and tolerability; assay type: in vivo, mouse
# [13] = test system: subcutaneous EZH2 mutant KARPAS-422 human DLBCL xenografts; test: KARPAS-422 xenograft antitumor activity; assay type: in vivo, SCID mice; settings: 250 and 500 mg/kg BID orally, 21 days
# [14] = liver microsome clearance, mouse; assay type: in vitro ADME; settings: mouse liver microsomes
# [15] = plasma protein binding, equilibrium dialysis, mouse; assay type: in vitro ADME
# [16] = plasma protein binding, equilibrium dialysis, human; assay type: in vitro ADME
structure (smiles),measurement,setting,value
"CCN(c1cc(C#CCN2CCOCC2)cc(C(=O)NCc2c(C)cc(C)[nH]c2=O)c1C)[C@H]1CC[C@H](N(C)CCOC)CC1 [EPZ011989, N-((4,6-Dimethyl-2-oxo-1,2-dihydropyridin-3-yl)methyl)-3-(ethyl((trans)-4-((2-methoxyethyl)(methyl)amino)cyclohexyl)amino)-2-methyl-5-(3-morpholinoprop-1-yn-1-yl)benzamide]",time over the predicted efficacious plasma levels,[1],≥ 6 h
same,predicted efficacious plasma exposure,[2],214 nM and 130 ng/mL
same,percent hepatic extraction (%Eh),[3],29%
same,percent hepatic extraction (%Eh),[4],< 14%
same,fraction unbound,[5],0.91 ± 0.06
same,IC50,[6],94 ± 48 nM
same,H3K27 methyl mark in tumor samples,[7],robust H3K27 methyl mark reduction
same,"LCC (lowest cytotoxic concentration), 11d proliferation WSU-DLCL2",[8],208 nM and 208 ± 75 (n = 4) nM
same,H3K27 methyl mark in bone marrow,[9],complete ablation of the methyl mark
same,time above LCC,[10]; 30 mg/kg,4 h
same,time above LCC,[10]; 100 mg/kg,8 h
same,AUC(0-inf),[10]; 30 mg/kg,970 ng·h/mL
same,Cmax,[10]; 30 mg/kg,240 ng/mL
same,Tmax,[10]; 30 mg/kg,2 h
same,AUC(0-inf),[10]; 100 mg/kg,5600 ng·h/mL
same,Cmax,[10]; 100 mg/kg,1600 ng/mL
same,Tmax,[10]; 100 mg/kg,2.7 h
same,AUC(0-inf),[10]; 300 mg/kg,10000 ng·h/mL
same,Cmax,[10]; 300 mg/kg,2900 ng/mL
same,Tmax,[10]; 300 mg/kg,2.7 h
same,coverage over the LCC (time),[11]; single oral dose 250 mg/kg,approximately 8 h
same,coverage over the LCC (time),[11]; single oral dose 500 mg/kg,approximately 8 h
same,dose that achieves complete coverage over the predicted efficacious plasma level,[12]; 7-day BID study,500 mg/kg BID
same,tolerability,"[12]; 125, 250, 500, 750 and 1000 mg/kg BID, 7 days",well tolerated
same,effect on mean body weights,[13],nominal effect on mean body weights
same,antitumor activity,"[13]; D-tartrate salt, SCID mice",significant tumor regression at both doses; also recorded: Robust tumor growth inhibition
same,percent hepatic extraction (%Eh),[14],< 11%
same,fraction unbound,[15],0.8 ± 0.11
same,fraction unbound,[16],0.97 ± 0.03

# From publication PMC4434464 (ACS Medicinal Chemistry Letters, 2015)
